Experimental data published in patent publication US20230181609A1, “IMMUNOMODULATORY OLIGOSACCHARIDES” (The Regents of the University of California, priority 2017, published 2023).

Assays:
[1] = background statement; cited from earlier work
[2] = system: IL-6 and IL-1β mRNA expression in LPS-activated RAW 264.7 cells; assay: Pro-inflammatory cytokine mRNA expression (RT-PCR) in LPS-stimulated RAW 264.7 macrophages; format: cell-based, murine
Protocol: RAW246.7 cells were exposed to LPS either alone or in combination with either pooled human milk oligosaccharides (HMOs), or 3′-sialyllactose (3′SL) or 2′-fucosyllactose (2′FL). After 6 hours, IL-6 (A) and IL-1β (B) mRNA levels were measured by RT-PCR and are plotted as mean±standard deviation (n=8) relative the respective mRNA levels in cells that were exposed to LPS alone (**p<0.01; ***p<0.001). HMOs are a group of more than 150 different structurally distinct oligosaccharides and their composition follows a basic structural blueprint (C), containing five monosaccharide building blocks: glucose (dark gray circle), galactose (light gray circle), N-acetylglucosamine (dark gray square), fucose (gray triangle) and sialic acid (gray diamond). 3′SL contains lactose with sialic acid at the terminal end; 2′FL contains lactose with fucose at the terminal end.
Oligosaccharides Reduce Pro-Inflammatory Cytokine mRNA Expression in Stimulated Macrophages. HMOs were first isolated and purified from pooled human donor milk (pHMO) by using polymixin B affinity chromatography to remove any lipopolysaccharide (LPS) contamination. RAW 264.7 cells, a murine macrophage cell line, were then incubated with LPS (10 ng/mL) and pHMO (500 ηg/mL) for 6 hours. RT-PCR was used to measure cytokine mRNA expression.
A multi-dimensional chromatography approach was used that separates pHMO first by charge and then by size. […] To exclude that the observed effect was due to impurities or contaminations from the isolation process, the results were confirmed with synthetized and commercially available 3′SL. […] Other oligosaccharides like 2′-fucosyllactose (2′FL), where the terminal monosaccharide is fucose instead of sialic acid (see FIG. 1C), had no effect, emphasizing that the anti-inflammatory effect of 3′SL in macrophages is specific to the structure of 3′SL.

[3] = system: primary mouse cells (bone marrow derived macrophages); assay: Pro-inflammatory cytokine expression in primary mouse bone marrow derived macrophages; format: cell-based
Text: (§1) Accordingly, the results with 3′SL translate to primary cells as well as to human macrophages.

[4] = system: collagen antibody-induced arthritis (CAIA); assay: Collagen antibody-induced arthritis (CAIA) mouse model; format: in vivo, female BALB/c mice
Protocol: Oral gavage of 3′SL (20 mg thrice daily, beginning at the time of LPS trigger) reduces baseline-corrected ankle swelling (A) and clinical pathology score 28 (B) over the course of the study. […] (*p<0.05, **p<0.01, ***p<0.001).
Rheumatoid Arthritis In vivo Experimental Design. Macrophages and the pro-inflammatory cytokines IL-6 and IL-1β are known to perform a major role in the development and progression of joint destruction in animal models and patients with RA. […] Next, it was asked whether or not the in vitro results translate to an in vivo model. 3′SL efficacy in a collagen antibody-induced arthritis (CAIA) model was tested in mice. In the CAIA model, arthritis is induced by systemic administration of a cocktail of monoclonal antibodies that target various regions of collagen type II, which is one of the major constituents of articular cartilage matrix proteins, followed by the administration of endotoxin (LPS) on day 3. The high uptake rate in the CAIA model and the capacity to synchronize the development of arthritis from the time of antibody injection, makes this a relatively straightforward model that is used to address questions of pathogenic mechanisms and to screen candidate therapeutic agents.
8-week old female BALB/c mice were injected with 1.5 mg of Arthrogen-CIA monoclonal antibody cocktail (Chondrex, Inc.). Three days later, the mice were injected with 25 μg of LPS. Beginning with the time of LPS administration and followed for the next 11 consecutive days, mice were orally gavaged thrice daily with either 3′SL (20 mg in saline) or saline alone as control. With the tester blinded to the study groups, arthritis in each limb was determined once per day. […] By adding together, the scores of all four limbs, the maximum score per mouse is 28. In addition, a caliper was placed across the ankle joint at the widest point to measure ankle thickness in both hind limbs daily. 14 days after antibody cocktail administration, mice were euthanized and hind paws collected and processed for histology. H&E—as well as Toluidine blue-stained sections were scored from 0 to 4 for inflammation, bone erosion and cartilage depletion based on a previously validated scoring system.

[5] = system: human THP-1 monocytic cell line; assay: Pro-inflammatory cytokine expression in human THP-1 monocytic cell line; format: cell-based
Text: as §1

[6] = RAW 264.7 cells, LPS 10 ng/mL, 6 hours, compared to LPS alone
[7] = 20 mg in saline, oral gavage thrice daily from LPS administration, vs saline
[8] = hind paws, day 14, scored 0 to 4, 20 mg oral gavage thrice daily

| IC50 for reducing IL-6 and IL-1β mRNA expression (dose-range finding studies) ([2]; LPS-stimulated macrophages) | Structure (SMILES) | digestion in the stomach and absorption [1] | tolerability [1] | IL-1β mRNA level [2, 6] | IL-6 mRNA level [2, 6] | pro-inflammatory cytokine expression [3] | Baseline-corrected ankle thickness (paw swelling) [4, 7] | clinical index score 28 [4, 7] | adverse effects ([4]; 14-day study period, 20 mg oral gavage thrice daily) | histology score for cartilage damage [4, 8] | histology score for erosion [4, 8] | histology score for inflammation [4, 8] | pro-inflammatory cytokine expression [5] |
| --- | --- | --- | --- | --- | --- | --- | --- | --- | --- | --- | --- | --- | --- |
|  | CC(=O)N[C@H]1[C@H](O[C@H]2[C@@H](O)[C@@H](CO)O[C@@H](O[C@H]3[C@H](O)[C@@H](O)C(O)O[C@@H]3CO)[C@@H]2O)O[C@H](CO)[C@@H](O[C@@H]2O[C@H](CO)[C@H](O)[C@H](O)[C@H]2O)[C@@H]1O (mixture of isomers) [LNnT, lacto-N-(neo)tetraose] | remain undigested in the stomach and are absorbed intact in the lower gastrointestinal tract | well tolerated |  |  |  |  |  |  |  |  |  |  |
| around 15 μg/mL | CC(=O)N[C@H]1[C@H]([C@H](O)[C@H](O)CO)O[C@@](O[C@H]2[C@@H](O)[C@@H](CO)O[C@@H](O[C@H]3[C@H](O)[C@@H](O)C(O)O[C@@H]3CO)[C@@H]2O)(C(=O)O)C[C@@H]1O (stereo partly shown) [3′SL, 3′-sialyllactose] |  |  | most effective | most effective | reduced | significantly reduced | significantly reduced | No adverse effects | significantly lower | significantly lower | significantly lower | reduced |
